The target of the assay is HEK293 cells with stable expression of the GRIN1 gene and tetracycline-inducible expression of the GRIN2B gene (NMDA receptor, NR2B) (Homo sapiens, UniProt Q13224). Nature of the assay: Fluo-8 Ca2+ flux assay: reversal of Ro 25-6981-mediated suppression of the Ca2+ response to co-agonist (glutamate/glycine). Also: test concentration or dose not given here. Type of assay: cell-based. The conditions noted are these: reversal of the Ro 25-6981 suppression of the Ca2+ response to co-agonist (glutamate/glycine). (Calcium flux is commonly read through the fluorescence of an indicator in the cells.)
Chain of HEK293 cells with stable expression of the GRIN1 gene and tetracycline-inducible expression of the GRIN2B gene (NMDA receptor, NR2B) (Q13224 27-1484, other chains not shown): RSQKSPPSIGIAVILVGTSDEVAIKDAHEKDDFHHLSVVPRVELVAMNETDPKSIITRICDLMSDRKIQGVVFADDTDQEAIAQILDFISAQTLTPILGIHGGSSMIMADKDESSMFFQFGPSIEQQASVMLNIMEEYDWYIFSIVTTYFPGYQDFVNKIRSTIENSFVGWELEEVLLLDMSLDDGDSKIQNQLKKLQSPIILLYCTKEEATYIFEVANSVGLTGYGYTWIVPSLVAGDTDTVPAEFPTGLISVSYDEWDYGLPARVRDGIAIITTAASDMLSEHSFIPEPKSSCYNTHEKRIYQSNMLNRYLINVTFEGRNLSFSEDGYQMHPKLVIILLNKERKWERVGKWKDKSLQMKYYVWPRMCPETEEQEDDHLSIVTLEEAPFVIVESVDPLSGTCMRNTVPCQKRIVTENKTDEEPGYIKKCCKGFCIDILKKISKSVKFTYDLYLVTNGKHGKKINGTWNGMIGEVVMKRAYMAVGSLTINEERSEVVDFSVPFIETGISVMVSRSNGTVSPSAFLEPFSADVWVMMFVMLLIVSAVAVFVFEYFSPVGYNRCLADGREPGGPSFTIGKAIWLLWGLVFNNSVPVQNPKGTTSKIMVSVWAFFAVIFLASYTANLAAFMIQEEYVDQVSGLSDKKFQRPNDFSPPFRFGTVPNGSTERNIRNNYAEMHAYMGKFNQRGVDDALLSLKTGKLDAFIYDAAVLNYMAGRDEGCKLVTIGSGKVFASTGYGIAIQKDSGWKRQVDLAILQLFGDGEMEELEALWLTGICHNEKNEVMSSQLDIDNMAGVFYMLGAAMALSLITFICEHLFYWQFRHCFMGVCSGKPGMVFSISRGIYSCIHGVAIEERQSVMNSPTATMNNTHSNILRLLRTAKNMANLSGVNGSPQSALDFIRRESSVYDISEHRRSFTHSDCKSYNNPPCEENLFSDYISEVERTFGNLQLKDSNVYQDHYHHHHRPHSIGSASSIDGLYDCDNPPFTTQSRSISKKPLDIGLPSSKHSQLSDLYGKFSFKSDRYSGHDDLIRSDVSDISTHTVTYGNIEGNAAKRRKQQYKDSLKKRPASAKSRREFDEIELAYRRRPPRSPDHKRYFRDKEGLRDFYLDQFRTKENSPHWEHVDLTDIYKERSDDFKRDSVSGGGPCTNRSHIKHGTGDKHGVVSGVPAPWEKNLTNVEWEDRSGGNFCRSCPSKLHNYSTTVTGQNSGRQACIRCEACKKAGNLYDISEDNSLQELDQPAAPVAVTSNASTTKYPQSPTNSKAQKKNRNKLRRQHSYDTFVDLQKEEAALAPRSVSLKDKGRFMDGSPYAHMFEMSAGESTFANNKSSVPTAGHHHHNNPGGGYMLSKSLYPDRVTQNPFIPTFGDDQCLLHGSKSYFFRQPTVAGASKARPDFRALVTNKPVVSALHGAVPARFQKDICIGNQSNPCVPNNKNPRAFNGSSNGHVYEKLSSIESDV
On to `O=C(Cn1ccn2ccc(-c3ccc(F)c(Cl)c3)c2c1=O)N1CC(F)(CF)C1` [Example 402, 8-(3-chloro-4-fluorophenyl)-2-(2-(3-fluoro-3-(fluoromethyl)azetidin-1-yl)-2-oxoethyl)pyrrolo[1,2-a]pyrazin-1(2H)-one], for which the “Response Recovered (%)” value was 130%.
To `O=C(Cn1ccn2ccc(-c3ccc(Cl)c(Cl)c3)c2c1=O)N1CC(F)(CF)C1` [Example 403, 8-(3,4-dichlorophenyl)-2-(2-(3-fluoro-3-(fluoromethyl)azetidin-1-yl)-2-oxoethyl)pyrrolo[1,2-a]pyrazin-1(2H)-one] belongs 130%.
On to `CC1(F)CN(C(=O)Cn2ccn3ccc(-c4cnc(Cl)c(Cl)c4)c3c2=O)C1` [Example 404, 8-(5,6-dichloropyridin-3-yl)-2-(2-(3-fluoro-3-methylazetidin-1-yl)-2-oxoethyl)pyrrolo[1,2-a]pyrazin-1(2H)-one], for which the “Response Recovered (%)” value amounted to 58%.
To `CCC1(F)CN(C(=O)Cn2ccn3ccc(-c4cnc(Cl)c(Cl)c4)c3c2=O)C1` [Example 405, 8-(5,6-dichloropyridin-3-yl)-2-(2-(3-ethyl-3-fluoroazetidin-1-yl)-2-oxoethyl)pyrrolo[1,2-a]pyrazin-1(2H)-one] belongs 61%; to `O=C(Cn1ccn2ccc(-c3cnc(Cl)c(Cl)c3)c2c1=O)N1CC(F)(CF)C1` [Example 406, 8-(5,6-dichloropyridin-3-yl)-2-(2-(3-fluoro-3-(fluoromethyl)azetidin-1-yl)-2-oxoethyl)pyrrolo[1,2-a]pyrazin-1(2H)-one], 85%.
Turning to `O=C(Cn1ccn2ccc(-c3ccc(F)c(C(F)(F)F)c3)c2c1=O)N1CC(F)(CF)C1` [Example 407, 2-(2-(3-fluoro-3-(fluoromethyl)azetidin-1-yl)-2-oxoethyl)-8-(4-fluoro-3-(trifluoromethyl)phenyl)pyrrolo[1,2-a]pyrazin-1(2H)-one], the “Response Recovered (%)” value is given as 130%.
On to `Cc1cc(-c2ccn3ccn(CC(=O)N4CC(C)(F)C4)c(=O)c23)cnc1Cl` [Example 408, 8-(6-chloro-5-methylpyridin-3-yl)-2-(2-(3-fluoro-3-methylazetidin-1-yl)-2-oxoethyl)pyrrolo[1,2-a]pyrazin-1(2H)-one], for which the “Response Recovered (%)” value was 51%.
To `Cc1cc(-c2ccn3ccn(CC(=O)N4CC(F)(CF)C4)c(=O)c23)cnc1Cl` [Example 409, 8-(6-chloro-5-methylpyridin-3-yl)-2-(2-(3-fluoro-3-(fluoromethyl)azetidin-1-yl)-2-oxoethyl)pyrrolo[1,2-a]pyrazin-1(2H)-one] belongs 33%; to `CCC1(F)CN(C(=O)Cn2ccn3ccc(-c4cnc(Cl)c(C)c4)c3c2=O)C1` [Example 410, 8-(6-chloro-5-methylpyridin-3-yl)-2-(2-(3-ethyl-3-fluoroazetidin-1-yl)-2-oxoethyl)pyrrolo[1,2-a]pyrazin-1(2H)-one], 34%; to `Cc1cn(CC(=O)N2CCC(F)C2)c(=O)c2c(-c3ccc(F)c(C(F)(F)F)c3)ccn12` (stereo not drawn) [Example 411, 8-(4-fluoro-3-(trifluoromethyl)phenyl)-2-(2-(3-fluoropyrrolidin-1-yl)-2-oxoethyl)-4-methylpyrrolo[1,2-a]pyrazin-1(2H)-one], 59%.
Consider `Cc1cn(CC(=O)N2CCC(F)C2)c(=O)c2c(-c3ccc(F)c(C(F)(F)F)c3)cc(Br)n12` (stereo not drawn) [Example 412, 6-bromo-8-(4-fluoro-3-(trifluoromethyl)phenyl)-2-(2-(3-fluoropyrrolidin-1-yl)-2-oxoethyl)-4-methylpyrrolo[1,2-a]pyrazin-1(2H)-one], for which the “Response Recovered (%)” value is recorded as 38%.
Next, `Cc1cn(CC(=O)N2CCC(F)C2)c(=O)c2c(-c3ccc(Cl)c(Cl)c3)ccn12` (stereo not drawn) [Example 413, 8-(3,4-dichlorophenyl)-2-(2-(3-fluoropyrrolidin-1-yl)-2-oxoethyl)-4-methylpyrrolo[1,2-a]pyrazin-1(2H)-one]: 43%.
Turning to `Cc1cn(CC(=O)N2CCC(F)C2)c(=O)c2c(-c3ccc(F)c(Cl)c3)ccn12` (stereo not drawn) [Example 414, 8-(3-chloro-4-fluorophenyl)-2-(2-(3-fluoropyrrolidin-1-yl)-2-oxoethyl)-4-methylpyrrolo[1,2-a]pyrazin-1(2H)-one], the “Response Recovered (%)” value was determined as 112%.
As to `Cc1cn(CC(=O)N2CCC(F)C2)c(=O)c2c(-c3ccc(F)c(Cl)c3)cc(Br)n12` (stereo not drawn) [Example 415, 6-bromo-8-(3-chloro-4-fluorophenyl)-2-(2-(3-fluoropyrrolidin-1-yl)-2-oxoethyl)-4-methylpyrrolo[1,2-a]pyrazin-1(2H)-one], the “Response Recovered (%)” value was found to be 52%.
On to `Cc1cn(CC(=O)N2CC(C)(F)C2)c(=O)c2c(-c3ccc(F)c(Cl)c3)ccn12` [Example 416, 8-(3-chloro-4-fluorophenyl)-2-(2-(3-fluoro-3-methylazetidin-1-yl)-2-oxoethyl)-4-methylpyrrolo[1,2-a]pyrazin-1(2H)-one], for which the “Response Recovered (%)” value came to 110%.
Turning to `Cc1cn(CC(=O)N2CC(F)(F)C2)c(=O)c2c(-c3ccc(F)c(Cl)c3)ccn12` [Example 417, 8-(3-chloro-4-fluorophenyl)-2-(2-(3,3-difluoroazetidin-1-yl)-2-oxoethyl)-4-methylpyrrolo[1,2-a]pyrazin-1(2H)-one], the “Response Recovered (%)” value was determined as 20%.
Next, `CCC1(F)CN(C(=O)Cn2cc(C)n3ccc(-c4ccc(F)c(Cl)c4)c3c2=O)C1` [Example 418, 8-(3-chloro-4-fluorophenyl)-2-(2-(3-ethyl-3-fluoroazetidin-1-yl)-2-oxoethyl)-4-methylpyrrolo[1,2-a]pyrazin-1(2H)-one]: 74%; `Cc1cn(CC(=O)N2CC(C)(F)C2)c(=O)c2c(-c3ccc(Cl)c(Cl)c3)ccn12` [Example 419, 8-(3,4-dichlorophenyl)-2-(2-(3-fluoro-3-methylazetidin-1-yl)-2-oxoethyl)-4-methylpyrrolo[1,2-a]pyrazin-1(2H)-one]: 110%; `Cc1cn(CC(=O)N2CC(C)(F)C2)c(=O)c2c(-c3cnc(Cl)c(Cl)c3)ccn12` [Example 420, 8-(5,6-dichloropyridin-3-yl)-2-(2-(3-fluoro-3-methylazetidin-1-yl)-2-oxoethyl)-4-methylpyrrolo[1,2-a]pyrazin-1(2H)-one]: 69%.
To `Cc1cn(CC(=O)N2CC(F)(CF)C2)c(=O)c2c(-c3cnc(Cl)c(Cl)c3)ccn12` [Example 421, 8-(5,6-dichloropyridin-3-yl)-2-(2-(3-fluoro-3-(fluoromethyl)azetidin-1-yl)-2-oxoethyl)-4-methylpyrrolo[1,2-a]pyrazin-1(2H)-one] belongs 92%; to `CCC1(F)CN(C(=O)Cn2cc(C)n3ccc(-c4cnc(Cl)c(Cl)c4)c3c2=O)C1` [Example 422, 8-(5,6-dichloropyridin-3-yl)-2-(2-(3-ethyl-3-fluoroazetidin-1-yl)-2-oxoethyl)-4-methylpyrrolo[1,2-a]pyrazin-1(2H)-one], 29%.
For the molecule `O=C(Cn1ccn2c(Br)cc(-c3ccc(F)c(C(F)(F)F)c3)c2c1=O)N1CCC(F)C1` (stereo not drawn) [Example 423, 6-bromo-8-(4-fluoro-3-(trifluoromethyl)phenyl)-2-(2-(3-fluoropyrrolidin-1-yl)-2-oxoethyl)pyrrolo[1,2-a]pyrazin-1(2H)-one], the “Response Recovered (%)” value is 72%.
With `CC1(F)CN(C(=O)Cn2cnn3cnc(-c4ccc(F)c(Cl)c4)c3c2=O)C1` [Example 424, 5-(3-chloro-4-fluorophenyl)-3-(2-(3-fluoro-3-methylazetidin-1-yl)-2-oxoethyl)imidazo[5,1-f][1,2,4]triazin-4(3H)-one], the “Response Recovered (%)” value turned out to be 0.55%.
As to `CC1(F)CN(C(=O)Cn2cnn3cnc(-c4ccc(Cl)c(Cl)c4)c3c2=O)C1` [Example 425, 5-(3,4-dichlorophenyl)-3-(2-(3-fluoro-3-methylazetidin-1-yl)-2-oxoethyl)imidazo[5,1-f][1,2,4]triazin-4(3H)-one], the “Response Recovered (%)” value was determined as 27%.
In the case of `Cc1nc(-c2ccc(F)c(Cl)c2)c2c(=O)n(CC(=O)N3CC(C)(F)C3)ccn12` [Example 426, 1-(3-chloro-4-fluorophenyl)-7-(2-(3-fluoro-3-methylazetidin-1-yl)-2-oxoethyl)-3-methylimidazo[1,5-a]pyrazin-8(7H)-one], the “Response Recovered (%)” value came out at 30%.
Next, `Cc1nc(-c2ccc(F)c(C(F)(F)F)c2)c2c(=O)n(CC(=O)N3CCC(F)C3)ccn12` (stereo not drawn) [Example 427, 1-(4-fluoro-3-(trifluoromethyl)phenyl)-7-(2-(3-fluoropyrrolidin-1-yl)-2-oxoethyl)-3-methylimidazo[1,5-a]pyrazin-8(7H)-one]: 19%; `Cc1nc(-c2ccc(F)c(Cl)c2)c2c(=O)n(CC(=O)N3CCC(F)C3)ccn12` (stereo not drawn) [Example 428, 1-(3-chloro-4-fluorophenyl)-7-(2-(3-fluoropyrrolidin-1-yl)-2-oxoethyl)-3-methylimidazo[1,5-a]pyrazin-8(7H)-one]: 18%.
`Cc1nc(-c2ccc(Cl)c(Cl)c2)c2c(=O)n(CC(=O)N3CCC(F)C3)ccn12` (stereo not drawn) [Example 429, 1-(3,4-dichlorophenyl)-7-(2-(3-fluoropyrrolidin-1-yl)-2-oxoethyl)-3-methylimidazo[1,5-a]pyrazin-8(7H)-one]: the “Response Recovered (%)” value worked out at 11%.
Next, `Cc1nc(-c2ccc(F)c(Cl)c2)c2c(=O)n(CC(=O)N3CC(F)(F)C3)ccn12` [Example 430, 1-(3-chloro-4-fluorophenyl)-7-(2-(3,3-dilfuoroazetidin-1-yl)-2-oxoethyl)-3-methylimidazo[1,5-a]pyrazin-8(7H)-one]: 7.3%.
To `CCC1(F)CN(C(=O)Cn2ccn3c(C)nc(-c4ccc(F)c(Cl)c4)c3c2=O)C1` [Example 431, 1-(3-chloro-4-fluorophenyl)-7-(2-(3-ethyl-3-fluoroazetidin-1-yl)-2-oxoethyl)-3-methylimidazo[1,5-a]pyrazin-8(7H)-one] belongs −3.9%.

Source of the values: patent publication US12162890B2 (Novartis AG, priority 2015, dated 2024).
